Source: PubChem BioAssay (NCI)
“And” between values parts separate entries of the source, which are not always exact repeats. Equal values may be shown once.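 Growth conditions: 96-well plates. Treatment: test compound, 48 hours, 5 concentrations. Analysis: linear interpolation between bracketing concentrations; unreached endpoints set to highest concentration. At the GI50, growth is halved. At the TGI there is no net growth.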

What was measured:
Test in all cases: growth of human tumour cells (NCI), 48 h
[1] = tested on: 786-0 renal
[2] = tested on: EKVX NSCLC
[3] = tested on: HCT-116 colon
[4] = tested on: IGROV1 ovarian
[5] = tested on: MDA-MB-435
[6] = tested on: NCI-H460 lung
[7] = tested on: OVCAR-5 ovarian
[8] = tested on: SNB-19 CNS
[9] = tested on: SW-620 colon
[10] = tested on: HOP-62 NSCLC

## C=C(C)[C@@H]1CCc2c(O)c(O)c(=O)cc(C)c2C1
[1]
  TGI: > 100 µM
[2]
  TGI: > 100 µM
[3]
  TGI: > 100 µM
[4]
  TGI: > 100 µM
[5]
  TGI: > 100 µM
[6]
  TGI: 3.54 µM
[7]
  TGI: > 100 µM
[8]
  TGI: > 100 µM
[9]
  TGI: > 100 µM

## COc1cc(OC)c2c(=O)cc(-c3ccccc3OCc3ccccc3)oc2c1OC
[1]
  GI50: 5.49 µM
  TGI: 56.4 µM
[2]
  GI50: 5.54 µM
  TGI: 91.2 µM
[3]
  GI50: 9.22 µM
  TGI: 50.5 µM
[10]
  GI50: 10.7 µM
  TGI: 44.4 µM
[5]
  GI50: 2.68 µM
  TGI: 7.01 µM
[6]
  GI50: 5.42 µM
  TGI: > 100 µM
[7]
  GI50: 18 µM
  TGI: 84.3 µM
[8]
  GI50: 41.7 µM
  TGI: > 100 µM
[9]
  GI50: 8.06 µM
  TGI: > 100 µM

## Cc1c(Nc2nccc3cc(CN4CC[C@@H](O)C4)cnc23)cccc1-c1cccc(-c2nc3cc(CN4CC[C@@H](C(=O)O)C4)cc(C#N)c3o2)c1C
[1]
  GI50: 4.5 µM
  TGI: > 100 µM
[2]
  GI50: > 100 µM
  TGI: > 100 µM
[3]
  GI50: 6.06 µM
  TGI: 23.6 µM
[10]
  GI50: > 100 µM
  TGI: > 100 µM
[4]
  GI50: 8.45 µM
  TGI: > 100 µM
[5]
  GI50: 15.3 µM
  TGI: 35.1 µM
[6]
  GI50: 7.15 µM
  TGI: 21.8 µM
[7]
  GI50: 53.7 µM
  TGI: > 100 µM
[8]
  GI50: 16.5 µM
  TGI: 46.2 µM
[9]
  GI50: 4.67 µM
  TGI: 17.9 µM

## COc1ccc(Nc2ncnc3ccc(-c4cncc(NS(C)(=O)=O)c4)cc23)cc1Cl
[1]
  GI50: 2.99 µM
  TGI: 13 µM
[2]
  GI50: 1.99 µM
  TGI: 6.82 µM
[3]
  GI50: 2.05 µM
  TGI: 5.69 µM
[10]
  GI50: 2.64 µM
  TGI: 22.6 µM
[4]
  GI50: 1.4 µM
  TGI: 4.46 µM
[5]
  GI50: 3.19 µM
  TGI: 15.3 µM
[6]
  GI50: 4.11 µM
  TGI: 17 µM
[7]
  GI50: 2.87 µM
  TGI: 29 µM
[8]
  GI50: 2.81 µM
  TGI: 24.4 µM
[9]
  GI50: 3.23 µM
  TGI: 12.4 µM

## Cc1nn(C)c2ncnc(N/N=C/c3cccc(O)c3O)c12
[1]
  GI50: 1.22 µM
  TGI: 11.7 µM
[2]
  GI50: 2.78 µM
  TGI: > 100 µM
[3]
  GI50: 0.568 µM
  TGI: > 100 µM
[10]
  GI50: 1.08 µM
  TGI: 15.1 µM
[4]
  GI50: 1.78 µM
  TGI: > 30.4 µM
[5]
  GI50: 0.609 µM
  TGI: > 100 µM
[6]
  GI50: 0.431 µM
  TGI: > 39.7 µM
[7]
  GI50: 4.06 µM
  TGI: > 100 µM
[8]
  GI50: 0.664 µM
  TGI: > 48.4 µM
[9]
  GI50: 0.48 µM
  TGI: > 100 µM

## CCC[CH2][Sn]([CH2]CCC)([CH2]CCC)/[C](=C/[Si](C)(C)c1ccccc1)c1ccc2c(c1)OCO2
[1]
  GI50: 16 µM
  TGI: 30.9 µM
[2]
  GI50: 15.2 µM
  TGI: 50.7 µM
[3]
  GI50: 17.9 µM
  TGI: 41 µM
[10]
  GI50: 23.7 µM
  TGI: 50.6 µM
[4]
  GI50: 16.9 µM
  TGI: 37.9 µM
[5]
  GI50: 15.7 µM
  TGI: 31.3 µM
[6]
  GI50: 21.3 µM
  TGI: 52.3 µM
[7]
  GI50: 19 µM
  TGI: 44 µM
[8]
  GI50: 21.3 µM
  TGI: 49.7 µM
[9]
  GI50: 20.9 µM
  TGI: 59.3 µM

## COc1cc(S(=O)(=O)Nc2nc(-c3ccc(N4C(=O)C(C)SC4c4ccccc4O)cc3)cs2)ccc1Cl (centres undefined)
[1]
  GI50: 64.9 µM
  TGI: > 100 µM
[2]
  GI50: 42.8 µM
  TGI: > 100 µM
[3]
  GI50: 28.6 µM
  TGI: > 100 µM
[10]
  GI50: 59.4 µM
  TGI: > 100 µM
[5]
  GI50: 43.6 µM
  TGI: > 100 µM
[6]
  GI50: 42.5 µM
  TGI: > 100 µM
[7]
  GI50: 49.5 µM
  TGI: > 100 µM
[8]
  GI50: 43.3 µM
  TGI: > 100 µM
[9]
  GI50: 62 µM
  TGI: > 100 µM

## Cc1ccc(S(=O)(=O)n2cc([C@@]3(O)C[C@H](CSC#N)OC3=O)c3ccccc32)cc1
[1]
  GI50: 12.7 µM
  TGI: 26.5 µM
[2]
  GI50: > 100 µM
  TGI: > 100 µM
[3]
  GI50: 5.07 µM
  TGI: 17.7 µM
[10]
  GI50: 25.1 µM
  TGI: 57.4 µM
[4]
  GI50: 7.54 µM
  TGI: 22.4 µM
[5]
  GI50: 6.78 µM
  TGI: 24.6 µM
[6]
  GI50: 9.19 µM
  TGI: 23.9 µM
[7]
  GI50: 13.2 µM
  TGI: 28.2 µM
[8]
  GI50: > 100 µM
  TGI: > 100 µM
[9]
  GI50: 5.98 µM
  TGI: 19.5 µM

## Cc1ccc2oc(=O)c3c(O)c4cccc(OC5OC(C)C6O[C@@H](c7ccccc7)OC6C5OC5OC(C)C(O)C(O)C5O)c4c4oc(=O)c1c2c34 (some centres undefined)
[1]
  GI50: 0.0447 µM
  TGI: 1.09 µM and 1.91 µM
[2]
  GI50: 0.519 µM
  TGI: 4.09 µM and 2.55 µM
[3]
  GI50: 0.0257 µM
[10]
  GI50: 0.105 µM
  TGI: 1.6 µM and 0.734 µM
[4]
  GI50: 0.0315 µM
  TGI: 1.39 µM and 1.32 µM
[5]
  TGI: 1.9 µM
[6]
  GI50: 0.00467 µM
  TGI: 1.03 µM and 0.545 µM
[7]
  GI50: 0.218 µM
  TGI: 1.13 µM and 2.7 µM
[8]
  GI50: 0.0266 µM
[9]
  TGI: 2.43 µM and 7.53 µM

## CN(C)CCN1C(=O)c2cccc3c(/C=C/CN4C(=O)c5cccc6cccc(c56)C4=O)ccc(c23)C1=O
[1]
  GI50: 4.5 µM
  TGI: 19.5 µM
[2]
  GI50: > 100 µM
  TGI: > 100 µM
[3]
  GI50: 56.9 µM
  TGI: > 100 µM
[10]
  GI50: 42 µM
  TGI: > 100 µM
[4]
  GI50: > 100 µM
  TGI: > 100 µM
[5]
  GI50: > 100 µM
  TGI: > 100 µM
[6]
  GI50: > 100 µM
  TGI: > 100 µM
[7]
  GI50: 35.5 µM
  TGI: > 100 µM
[8]
  GI50: 13.9 µM
  TGI: 26.9 µM
[9]
  GI50: > 100 µM
  TGI: > 100 µM

## CCc1ccc2oc(=O)ccc2c1
[1]
  TGI: > 100 µM
[2]
  TGI: > 100 µM
[3]
  TGI: > 100 µM
[10]
  TGI: > 100 µM
[4]
  TGI: > 100 µM
[5]
  TGI: > 100 µM
[6]
  TGI: > 100 µM
[7]
  TGI: > 100 µM
[8]
  TGI: > 100 µM
[9]
  TGI: > 100 µM

## NC1=NC(SCc2ccccc2CCl)c2ncn(Cc3ccccc3CCl)c2N1 (centres undefined)
[1]
  GI50: 1.85 µM
  TGI: 3.97 µM
[2]
  GI50: 3.14 µM
  TGI: 11.6 µM
[3]
  GI50: 1.47 µM
  TGI: 3.06 µM
[10]
  GI50: 1.53 µM
  TGI: 3.16 µM
[4]
  GI50: 1.52 µM
  TGI: 3.57 µM
[5]
  GI50: 1.53 µM
  TGI: 3.28 µM
[6]
  GI50: 2.53 µM
  TGI: 6.69 µM
[7]
  GI50: 2.7 µM
  TGI: 9.88 µM
[8]
  GI50: 4.83 µM
  TGI: 23.2 µM
[9]
  GI50: 1.54 µM
  TGI: 3.57 µM

## C1CSC[C@H]2COC[C@@H](CSCCS1)S2
[1]
  TGI: > 100 µM
[2]
  TGI: > 100 µM
[3]
  TGI: > 100 µM
[10]
  TGI: > 100 µM
[5]
  TGI: > 100 µM
[6]
  TGI: > 100 µM
[7]
  TGI: > 100 µM
[8]
  TGI: > 100 µM
[9]
  TGI: > 100 µM

## O=C1CC(c2cccc(Cl)c2)Oc2ccccc21 (centres undefined)
[1]
  TGI: 39.5 µM
[2]
  TGI: 43.7 µM
[3]
  TGI: 31.3 µM
[10]
  TGI: 32.6 µM
[4]
  TGI: 50.7 µM
[5]
  TGI: 38.1 µM
[6]
  TGI: 42.1 µM
[8]
  TGI: 30.8 µM
[9]
  TGI: 72.1 µM
